Experimental findings from paper PMC5137160, “Optical imaging of MMP-12 active form in inflammation and aneurysm” (Scientific Reports, 2016) are described below.

One series deals with hMMP-12. In words: MMP inhibition assay (Ki). It is filed as biochemical, human. How it is done: (§1) Human MMP-8, -9, -12 and -13 were produced in the laboratory. Other MMPs were purchased from R&D Systems (Minneapolis, MN). MMP inhibition assays were carried out as previously described. Pro-MMPs were pre-activated by p-aminophenylmercuric acetate following the method described by R&D Systems. Titration experiments were carried out to determine active enzyme concentration for each MMP prior to the assay. For each probe, the percentage of inhibition was determined from five different concentrations in triplicates, chosen to reach a range of 20–80% inhibition. Ki values were determined using the method proposed by Horovitz and Leviski[45].

For the next series, the target named is T1, ADAMTS-5 (Homo sapiens, UniProt Q9UNA0).
T1 sequence (Q9UNA0 262-930): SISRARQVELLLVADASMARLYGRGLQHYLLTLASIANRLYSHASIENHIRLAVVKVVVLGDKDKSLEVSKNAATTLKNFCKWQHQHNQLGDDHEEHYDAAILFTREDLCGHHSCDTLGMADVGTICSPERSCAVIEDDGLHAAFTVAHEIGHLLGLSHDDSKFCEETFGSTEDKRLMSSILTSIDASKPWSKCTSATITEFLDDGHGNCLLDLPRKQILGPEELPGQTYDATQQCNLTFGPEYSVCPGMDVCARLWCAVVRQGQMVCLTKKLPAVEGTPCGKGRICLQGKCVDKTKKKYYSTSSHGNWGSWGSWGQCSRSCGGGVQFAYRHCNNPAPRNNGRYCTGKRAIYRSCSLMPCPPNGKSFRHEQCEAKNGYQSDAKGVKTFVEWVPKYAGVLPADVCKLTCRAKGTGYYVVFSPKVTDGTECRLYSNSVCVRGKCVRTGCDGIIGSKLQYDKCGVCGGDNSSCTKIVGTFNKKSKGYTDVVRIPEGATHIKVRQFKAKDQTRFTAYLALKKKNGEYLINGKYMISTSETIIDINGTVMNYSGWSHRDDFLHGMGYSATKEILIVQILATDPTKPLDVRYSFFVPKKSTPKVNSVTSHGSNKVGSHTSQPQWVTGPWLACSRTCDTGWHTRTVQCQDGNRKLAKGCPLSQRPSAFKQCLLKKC
In words: Metalloprotease inhibition assay (Ki). It is filed as biochemical.

Series [1] can be described thus: Blood levels in apoE-/- mice. It is filed as in vivo. The conditions noted are these: mouse, whole blood, intravenous, 1 nmol, read-out: Blood level. How it is done:
Fluorescent probes (one nmol in 100 μL saline) were administered through a jugular vein catheter under inhaled isoflurane anesthesia. Blood samples were collected at various time points after probe administration to monitor blood clearance. Animals were sacrificed at the indicated time points and various organs were harvested. Near-infrared fluorescence reflectance imaging was conducted using an IVIS Spectrum system (Caliper Life Science, Hopkinton, MA) with appropriate excitation (Ex) and emission (Em) filter sets (Ex/Em = 675/720 nm for probe 1 and Ex/Em = 745/800 nm for probes 3 and 4). Fluorescence from 10 μL of blood was converted to % injected dose per gram (% ID/g) using a standard curve derived from serial dilutions of each probe in 10 μL of mouse blood. Tissue fluorescence was quantified as mean efficiency per pixel and was presented as an arbitrary unit (AU) relative to the signal from each probe in 10 μL of mouse blood.

The next series deals with T2, hMMP-3 (Homo sapiens, UniProt P08254).
T2 construct: purchased R&D Systems (Minneapolis, MN)
In words: MMP inhibition assay (Ki). It is filed as biochemical. The procedure:
as §1

The target in a further series is T3, hMMP-9 (Homo sapiens, UniProt P14780).
T3 construct: made in house
In words: MMP inhibition assay (Ki). It is filed as biochemical. The procedure: as §1

Another series concerns the target T4, hMMP-8 (Homo sapiens, UniProt P22894).
T4 construct: made in house
In words: MMP inhibition assay (Ki). It is filed as biochemical. How it is done:
as §1

Another series has as its target T5, hMMP-10 (Homo sapiens, UniProt P09238).
T5 construct: purchased R&D Systems (Minneapolis, MN)
In words: MMP inhibition assay (Ki). It is filed as biochemical. How it is done: as §1

For the next series, the target named is T6, hMMP-2 (Homo sapiens, UniProt P08253).
T6 construct: purchased R&D Systems (Minneapolis, MN)
T6 sequence (P08253 110-660): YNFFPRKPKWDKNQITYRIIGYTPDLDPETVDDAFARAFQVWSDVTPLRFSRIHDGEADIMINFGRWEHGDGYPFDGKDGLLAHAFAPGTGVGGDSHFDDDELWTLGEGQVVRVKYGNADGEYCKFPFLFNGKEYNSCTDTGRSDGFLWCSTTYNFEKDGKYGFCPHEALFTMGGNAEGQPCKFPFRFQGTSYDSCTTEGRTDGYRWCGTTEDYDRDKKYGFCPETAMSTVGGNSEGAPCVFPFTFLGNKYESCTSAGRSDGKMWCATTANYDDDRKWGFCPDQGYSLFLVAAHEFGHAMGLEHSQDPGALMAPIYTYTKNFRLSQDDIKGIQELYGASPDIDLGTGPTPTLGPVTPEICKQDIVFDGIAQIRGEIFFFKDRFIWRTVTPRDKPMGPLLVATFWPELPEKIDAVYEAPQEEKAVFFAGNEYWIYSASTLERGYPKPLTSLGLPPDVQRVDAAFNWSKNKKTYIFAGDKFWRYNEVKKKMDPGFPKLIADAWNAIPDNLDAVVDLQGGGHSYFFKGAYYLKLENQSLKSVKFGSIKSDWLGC
The series can be described thus: MMP inhibition assay (Ki). It is filed as biochemical. The procedure:
as §1

The target in a further series is T7, hMMP-1 (Homo sapiens, UniProt P03956).
T7 construct: purchased R&D Systems (Minneapolis, MN)
T7 sequence (P03956 100-469): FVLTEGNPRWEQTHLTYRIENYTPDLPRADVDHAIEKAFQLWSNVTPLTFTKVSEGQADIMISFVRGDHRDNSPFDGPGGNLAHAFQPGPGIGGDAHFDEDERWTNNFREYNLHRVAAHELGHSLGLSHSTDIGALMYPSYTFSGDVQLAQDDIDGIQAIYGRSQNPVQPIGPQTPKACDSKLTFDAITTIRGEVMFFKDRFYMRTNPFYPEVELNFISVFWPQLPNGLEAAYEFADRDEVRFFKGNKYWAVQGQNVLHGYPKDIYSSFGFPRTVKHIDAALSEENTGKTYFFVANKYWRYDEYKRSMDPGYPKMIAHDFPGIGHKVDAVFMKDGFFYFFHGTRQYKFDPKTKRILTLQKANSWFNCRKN
The series can be described thus: MMP inhibition assay (Ki). It is filed as biochemical. The procedure:
as §1

Another series deals with T8, hMMP-7 (Homo sapiens, UniProt P09237).
T8 construct: purchased R&D Systems (Minneapolis, MN)
T8 sequence (P09237 95-267): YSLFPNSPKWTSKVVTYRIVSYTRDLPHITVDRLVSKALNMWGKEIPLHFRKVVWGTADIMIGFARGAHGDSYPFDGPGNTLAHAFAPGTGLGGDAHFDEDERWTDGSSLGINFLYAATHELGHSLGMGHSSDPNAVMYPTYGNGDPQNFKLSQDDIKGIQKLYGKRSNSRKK
The series can be described thus: MMP inhibition assay (Ki). It is filed as biochemical. How it is done:
as §1

The next series concerns the target T9, hMMP-14 (Homo sapiens, UniProt P50281).
T9 construct: purchased R&D Systems (Minneapolis, MN)
In words: MMP inhibition assay (Ki). It is filed as biochemical. How it is done:
as §1

Another series addresses T10, hMMP-13 (Homo sapiens, UniProt P45452).
T10 construct: made in house
The series can be described thus: MMP inhibition assay (Ki). It is filed as biochemical. The procedure:
as §1

Structures are written as SMILES.

Usually Ki stands for the dissociation constant of the complex between target and ligand, obtained from inhibition or displacement.

T5 sequence (P09238 99-476): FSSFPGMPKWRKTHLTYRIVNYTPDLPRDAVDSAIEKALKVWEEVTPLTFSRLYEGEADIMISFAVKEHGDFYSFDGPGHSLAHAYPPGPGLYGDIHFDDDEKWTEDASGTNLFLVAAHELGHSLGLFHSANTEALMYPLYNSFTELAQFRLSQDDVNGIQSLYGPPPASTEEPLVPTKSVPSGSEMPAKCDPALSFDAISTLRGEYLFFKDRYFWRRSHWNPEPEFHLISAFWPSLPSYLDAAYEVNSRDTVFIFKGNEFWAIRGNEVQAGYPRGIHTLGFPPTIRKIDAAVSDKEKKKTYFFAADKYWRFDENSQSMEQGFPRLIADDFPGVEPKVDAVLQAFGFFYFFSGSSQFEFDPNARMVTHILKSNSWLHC
T3 sequence (P14780 94-707): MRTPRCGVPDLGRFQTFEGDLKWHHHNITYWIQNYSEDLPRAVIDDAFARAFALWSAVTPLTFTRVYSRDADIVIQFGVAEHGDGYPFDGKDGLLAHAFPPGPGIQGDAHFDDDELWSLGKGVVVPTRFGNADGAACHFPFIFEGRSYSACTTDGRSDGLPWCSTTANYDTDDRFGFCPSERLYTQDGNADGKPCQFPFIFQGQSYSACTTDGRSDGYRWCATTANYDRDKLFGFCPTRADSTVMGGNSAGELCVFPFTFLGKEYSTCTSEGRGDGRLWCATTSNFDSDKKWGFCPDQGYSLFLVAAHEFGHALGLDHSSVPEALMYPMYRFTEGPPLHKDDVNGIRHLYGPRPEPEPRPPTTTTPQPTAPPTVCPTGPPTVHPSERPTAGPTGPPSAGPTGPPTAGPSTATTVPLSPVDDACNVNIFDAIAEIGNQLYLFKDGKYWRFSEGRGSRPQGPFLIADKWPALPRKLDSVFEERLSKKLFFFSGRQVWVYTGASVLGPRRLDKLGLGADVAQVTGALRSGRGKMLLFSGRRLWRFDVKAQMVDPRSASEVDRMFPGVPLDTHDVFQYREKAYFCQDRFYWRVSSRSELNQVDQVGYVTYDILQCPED
T4 sequence (P22894 101-467): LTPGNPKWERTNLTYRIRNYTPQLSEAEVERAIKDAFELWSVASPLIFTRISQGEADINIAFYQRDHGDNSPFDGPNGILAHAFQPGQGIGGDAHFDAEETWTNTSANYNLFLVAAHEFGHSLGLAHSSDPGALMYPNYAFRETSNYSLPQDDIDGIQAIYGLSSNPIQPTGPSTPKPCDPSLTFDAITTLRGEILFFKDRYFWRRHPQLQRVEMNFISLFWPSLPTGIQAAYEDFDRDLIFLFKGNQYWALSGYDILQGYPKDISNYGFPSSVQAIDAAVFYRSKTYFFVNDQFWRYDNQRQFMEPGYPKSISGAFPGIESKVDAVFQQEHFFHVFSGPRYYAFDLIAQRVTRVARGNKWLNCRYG
T2 sequence (P08254 100-477): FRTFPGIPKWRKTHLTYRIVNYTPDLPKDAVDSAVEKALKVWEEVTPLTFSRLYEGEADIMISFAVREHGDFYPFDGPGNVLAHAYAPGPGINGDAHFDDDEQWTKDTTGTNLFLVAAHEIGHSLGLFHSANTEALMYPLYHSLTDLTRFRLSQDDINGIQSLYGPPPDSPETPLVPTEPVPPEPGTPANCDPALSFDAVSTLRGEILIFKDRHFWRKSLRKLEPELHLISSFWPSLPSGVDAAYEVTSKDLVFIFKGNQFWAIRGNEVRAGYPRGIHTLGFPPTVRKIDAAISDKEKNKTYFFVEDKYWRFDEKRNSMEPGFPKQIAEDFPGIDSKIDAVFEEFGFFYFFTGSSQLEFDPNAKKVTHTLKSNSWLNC

With `CC1(C)C(/C=C/C2=C(Oc3ccc(CCC(=O)NCCCOCCOCCOCCCNC(=O)[C@H](CCC(=O)[O-])NC(=O)[C@H](CCC(=O)O)NC(=O)[C@H](Cc4cc(-c5ccc(-c6cccc(Cl)c6)cc5)no4)CP(=O)(O)c4ccc(Br)cc4)cc3)C(=C/C=C3/N(CCC[N+](C)(C)C)c4ccc(S(=O)(=O)[O-])cc4C3(C)C)/CCC2)=[N+](CCC[N+](C)(C)C)c2ccc(S(=O)(=O)[O-])cc21` [probe 3], the Ki is 0.0034 ± 0.0003 µM on hMMP-12; greater than 10 µM on ADAMTS-5; 0.367 ± 0.061 µM at hMMP-3; 4.79 ± 0.535 µM on hMMP-9; 3.31 ± 0.348 µM at hMMP-8; 0.136 ± 0.022 µM at hMMP-10. Also, the Ki was 2.13 ± 0.172 µM on hMMP-2; greater than 10 µM at hMMP-1; 4.99 ± 0.151 µM on hMMP-7; 1.02 ± 0.069 µM on hMMP-14; 0.124 ± 0.007 µM on hMMP-13. In addition, the “difference in potency towards MMP-12, factor relative to probe 1” value with hMMP-12 (relative to probe 1) turned out to be 4. Moreover, the tissue uptake at 30 min in series [1] is 2.7 ± 0.1 %ID/g. In addition, the tissue uptake at 60 min in series [1] was 2.3 ± 0.3 %ID/g.

As for `CC1(C)C(=CC=C2CCCC(C=CC3=[N+](CCC[N+](C)(C)C)c4ccc(S(=O)(=O)[O-])cc4C3(C)C)=C2Oc2ccc(CCC(=O)NCCCOCCOCCOCCCNC(=O)C(CCC(=O)[O-])NC(=O)C(CCC(=O)O)NC(=O)C(Cc3cc(-c4cccc(Oc5ccccc5)c4)no3)CP(=O)(O)c3ccc(Br)cc3)cc2)N(CCC[N+](C)(C)C)c2ccc(S(=O)(=O)[O-])cc21` (stereo not drawn) [probe 4], the Ki was 4.04 ± 0.67 µM on hMMP-12; greater than 10 µM at ADAMTS-5; greater than 12 µM on hMMP-3; 4.9 ± 1.3 µM at hMMP-9; 7.5 ± 0.73 µM on hMMP-8; 6.43 ± 1.67 µM at hMMP-10. The Ki at hMMP-2 was greater than 12 µM; on hMMP-1, greater than 10 µM; at hMMP-7, 9.8 ± 0.32 µM; at hMMP-14 it was 7.86 ± 1.53 µM; on hMMP-13, 7.73 ± 1.53 µM. Further, the tissue uptake at 30 min in [1] was found to be 2.4 ± 0.3 %ID/g. Moreover, in series [1], the tissue uptake at 60 min was 2 ± 0.2 %ID/g.
